Among the data in ChEMBL document CHEMBL5550187, “The Development of a Highly Potent and Selective Human Toll-like Receptor 2 Agonist: Synthesis and Biological Evaluation of CaLGL-1 and Its Derivatives” (J Med Chem, 2024) are Activity, EC50 and fold change (FC) values, retold here.

Calls of active or inactive are those of the source. The calls are words filed in the database; no cut-off is given here.

Holding throughout (type): cell-based
Assay [1] deals with Toll-like receptor 2 (Mus musculus) (UniProt Q9QUN7). Put plainly: Agonist activity at TLR2 in CSF-2/GM-CSF treated wild type C57BL/6 mouse BMDC cells assessed as increase in TNF-alpha mRNA expression at 10 uM measured after 24 hrs by qRT-PCR analysis.
Toll-like receptor 2 (Mus musculus), sequence (Q9QUN7 whole entry): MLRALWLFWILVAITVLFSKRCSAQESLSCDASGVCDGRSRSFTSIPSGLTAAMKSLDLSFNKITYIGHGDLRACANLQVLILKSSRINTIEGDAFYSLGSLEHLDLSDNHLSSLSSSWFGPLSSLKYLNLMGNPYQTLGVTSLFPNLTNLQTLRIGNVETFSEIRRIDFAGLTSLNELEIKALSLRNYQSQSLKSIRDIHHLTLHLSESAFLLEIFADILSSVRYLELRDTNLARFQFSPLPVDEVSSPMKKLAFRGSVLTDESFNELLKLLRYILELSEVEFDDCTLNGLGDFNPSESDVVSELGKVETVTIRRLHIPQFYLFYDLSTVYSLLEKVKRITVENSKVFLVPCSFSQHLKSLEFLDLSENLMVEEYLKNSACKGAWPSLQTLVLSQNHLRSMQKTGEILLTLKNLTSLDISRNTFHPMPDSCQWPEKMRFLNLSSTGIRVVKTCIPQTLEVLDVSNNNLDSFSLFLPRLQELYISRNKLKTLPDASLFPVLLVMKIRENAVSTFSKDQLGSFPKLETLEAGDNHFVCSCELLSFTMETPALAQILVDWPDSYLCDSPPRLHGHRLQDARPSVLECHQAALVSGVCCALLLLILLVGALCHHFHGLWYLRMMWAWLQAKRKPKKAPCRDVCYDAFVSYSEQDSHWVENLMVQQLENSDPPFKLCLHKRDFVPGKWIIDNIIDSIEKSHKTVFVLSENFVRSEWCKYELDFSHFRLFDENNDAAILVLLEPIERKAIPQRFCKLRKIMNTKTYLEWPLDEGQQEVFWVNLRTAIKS
Assay [2] has the same target. Put plainly: Agonist activity at TLR2 in CSF-2/GM-CSF treated wild type C57BL/6 mouse BMDC cells assessed as increase in TNF-alpha level at 10 uM measured after 24 hrs by ELISA.
Assay [3] has as its target T1, Toll-like receptor 2 (Homo sapiens, UniProt O60603). Put plainly: Agonist activity at TLR2 in PMA-differentiated human THP-1 cells assessed as increase in TNF-alpha level by ELISA.
Assay [4] addresses T1, Toll-like receptor 2. Description: Agonist activity at human TLR2 transfected in HEK293T cells cotransfected with NF-kappaB promoter assessed as increase in NF-kappaB activation measured after 24 hrs by Dual-Glo luciferase assay. The conditions noted are these: filed as agonist.
Assay [5] has as its target Toll-like receptor 1/2 (Homo sapiens) (UniProt O60603+Q15399). Put plainly: Agonist activity at human TLR1/TLR2 heterodimer transfected in HEK293T cells cotransfected with NF-kappaB promoter assessed as fold increase in NF-kappaB activation at 1 to 50 uM measured after 24 hrs by Dual-Glo luciferase assay relative to TLR2 alone. Particulars: filed as agonist, dose 1-50 µM.

In the next assay the target is TLR2/TLR6 (Homo sapiens) (UniProt O60603+Q9Y2C9). Put plainly: Agonist activity at human TLR2/TLR6 heterodimer transfected in HEK293T cells cotransfected with NF-kappaB promoter assessed as increase in NF-kappaB activation at 1 to 50 uM measured after 24 hrs by Dual-Glo luciferase assay. The conditions noted are these: dose 1-50 µM.
Assay [6] concerns the target T1, Toll-like receptor 2. Description: Agonist activity at TLR2 in PMA-differentiated human THP-1 cells assessed as increase in TNF-alpha mRNA expression by qRT-PCR analysis.
Assay [7] has as its target T1, Toll-like receptor 2. Description: Agonist activity at TLR2 in PMA-differentiated human THP-1 cells assessed as increase in IL-1beta mRNA expression by qRT-PCR analysis.
For assay [8], the target named is T1, Toll-like receptor 2. Put plainly: Agonist activity at TLR2 in PMA-differentiated human THP-1 cells assessed as increase in IL-6 mRNA expression by qRT-PCR analysis.
Assay [9] deals with Toll-like receptor 2 (Mus musculus, UniProt Q9QUN7). Description: Agonist activity at TLR2 in RmGM-CSF-induced wild type Black6 mouse BMDC cells lacking TLR4 assessed as increase in TNFalpha response incubated overnight by ELISA.
Toll-like receptor 2 (Mus musculus, UniProt Q9QUN7), sequence (Q9QUN7 whole entry): as above

T1 sequence (O60603 whole entry): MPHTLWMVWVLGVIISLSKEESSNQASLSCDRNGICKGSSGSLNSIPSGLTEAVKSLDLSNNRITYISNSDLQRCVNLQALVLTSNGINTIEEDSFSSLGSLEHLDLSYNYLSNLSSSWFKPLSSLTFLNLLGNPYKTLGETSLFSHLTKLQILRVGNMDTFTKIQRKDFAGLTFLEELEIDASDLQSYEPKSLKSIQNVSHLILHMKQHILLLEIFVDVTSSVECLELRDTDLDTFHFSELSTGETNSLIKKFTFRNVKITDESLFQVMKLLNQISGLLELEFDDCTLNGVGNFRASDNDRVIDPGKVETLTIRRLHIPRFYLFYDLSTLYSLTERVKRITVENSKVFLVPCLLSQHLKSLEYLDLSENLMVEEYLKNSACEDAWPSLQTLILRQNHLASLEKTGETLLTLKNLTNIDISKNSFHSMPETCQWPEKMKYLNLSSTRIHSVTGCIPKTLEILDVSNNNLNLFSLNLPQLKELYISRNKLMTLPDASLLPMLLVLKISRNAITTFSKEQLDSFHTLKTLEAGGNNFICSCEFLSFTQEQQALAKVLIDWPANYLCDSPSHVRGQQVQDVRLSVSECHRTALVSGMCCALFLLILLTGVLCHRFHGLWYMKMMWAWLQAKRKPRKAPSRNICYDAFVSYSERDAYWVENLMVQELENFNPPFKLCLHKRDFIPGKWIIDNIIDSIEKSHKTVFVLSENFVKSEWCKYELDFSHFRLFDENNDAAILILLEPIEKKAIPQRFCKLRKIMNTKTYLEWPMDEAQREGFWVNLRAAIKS

In the case of `CCCCCCCCCCCCCCCCCCC[C@@H]1OC[C@H]([C@@H]2O[C@@H](OC[C@H](O)COC(=O)CCCCCCCCCCC)[C@H](O)[C@H]2O)O1`, the result in [1] and in assay [2] was inactive.

With `CCCCCCCCCCCCCCCCCCC[C@H]1OC[C@H]([C@@H]2O[C@@H](OC[C@H](O)COC(=O)CCCCCCCCCCC)[C@H](O)[C@H]2O)O1`, the result in assay [1] and in assay [2] was inactive.

For the compound `CCCCCCCCCCCC(=O)OC[C@@H](O)CO[C@@H]1O[C@@H]([C@H]2CO[C@@H](CCCCCCCCC)O2)[C@H](O)[C@H]1O`, the outcome in assay [1] (filed as agonist) and in assay [2] (filed as agonist) was Active.

As for `CCCCCCCCCCCC[C@@H]1OC[C@H]([C@@H]2O[C@@H](OC[C@H](O)COC(=O)CCCCCCCCCCC)[C@H](O)[C@H]2O)O1`, the EC50 on Toll-like receptor 2 [3] was found to be 0.116 nM. On Toll-like receptor 2 [4], the result was Active. Moreover, the fold change (FC) in assay [5] came out at 15. In addition, on TLR2/TLR6 (Homo sapiens), the result was inactive.

As for `CCCCCCCCCCCC(=O)OC[C@@H](O)CO[C@@H]1O[C@@H]([C@H]2CO[C@H](CCCCCCCCCCC)O2)[C@H](O)[C@H]1O`, the outcome in assay [1] (filed as agonist) and in assay [2] (filed as agonist) was Active.

On to `CCCCCCCCCCCCC[C@@H]1OC[C@H]([C@@H]2O[C@@H](OC[C@H](O)COC(=O)CCCCCCCCCCC)[C@H](O)[C@H]2O)O1`, for which the outcome at Toll-like receptor 2 [6], at Toll-like receptor 2 [7] and at Toll-like receptor 2 [8] was inactive. Besides, the EC50 at Toll-like receptor 2 [9] was determined as 3200 nM.

With `CCCCCCCCCCCC(=O)OC[C@@H](O)CO[C@@H]1O[C@@H]([C@H]2CO[C@@H](CCCCCCCCCCC)O2)[C@H](O)[C@H]1O`, the outcome (on Toll-like receptor 2 [6] (filed as agonist); at Toll-like receptor 2 [7] (filed as agonist); on Toll-like receptor 2 [8] (filed as agonist); in assay [1] (filed as agonist); in [2] (filed as agonist)) was Active.

Regarding `CCCCCCCCCCCCCCCCC[C@@H]1OC[C@H]([C@@H]2O[C@@H](OC[C@H](O)COC(=O)CCCCCCCCCCC)[C@H](O)[C@H]2O)O1`, the result in assay [1] and in [2] was inactive.

Consider `CCCCCCCCCCCC(=O)OC[C@@H](O)CO[C@@H]1O[C@@H]([C@H]2CO[C@H](CCCCCCCCC)O2)[C@H](O)[C@H]1O`, for which the result in assay [1] (filed as agonist) and in assay [2] (filed as agonist) was Active.

In the case of `CCCCCCCCCCCCCCCCC[C@H]1OC[C@H]([C@@H]2O[C@@H](OC[C@H](O)COC(=O)CCCCCCCCCCC)[C@H](O)[C@H]2O)O1`, the result in [1] and in [2] was inactive.
